This is an account of results in US7067486B2, “Acetylcholinesterase-derived peptides and uses thereof” (priority 1999, dated 2006).

The test system of assay [1] is CD34^+ cells. As to the kind of experiment: BrdU incorporation into CD34+ cells (cell proliferation). In kind it is cell-based, human. As to conditions: peptide 2 nM, cord blood CD34+ cells. The text has this:
Cell Source: UCB was collected, following informed consent of the parents and with the approval of the Sourasky Medical Center Ethics Committee, as previously described [Grisaru et al. (1999a) Am. J. Obstet. Gynecol, 180, 1240–1243]. Following 1:1 (v/v) dilution in Iscove's modified Dulbecco medium (IMDM, Beit Haemek, Israel), mononuclear cells were separated using 3% gelatin (Difco, Detroit, Mich.) and Ficoll-Hypaque gradients (<1.077 g/ml; Pharmacia, Uppsala, Sweden) [Pick et al. (1998) Br. J. Haematol. 103, 639–50]. CD34^+ cells were enriched using CD34 immunoglobulin-coated magnetic beads (CD34 progenitor cell selection system, Dynal, Norway).CD34^+ cells analysis was performed by flow cytometry (Becton Dickinson Immunocytochemistry System Inc., San Jose, Calif.), using CD34-PE (Becton Dickinson Immunocytometry System, Inc.) and CD45-FITC (Dako, Glostrup, Denmark) monoclonal antibodies. […] Liquid Cultures: UCB CD34^+ cells were set for liquid cultures at a concentration of 10^5/mL in IMDM, containing 10% autologous plasma, 2 mM L-glutamine (Sigma Chemical Co., St Louis, Mo.), penicillin ([…]), streptomycin ([…]), amphotericin B (2×10^−5 M) (Sigma Chemical Co.), and heparin (20 IU/mL, Gibco, Grand Island, N.Y.), all in a fully humidified atmosphere at 37° C. and 5% CO2. The following elements were added where noted: • 1. Hematopoietic growth factors: Interleukin 3 (IL3, 5 ng/mL, Immunex, Seattle, Wash.), interleukin 6 (IL6, 50 ng/mL, R&D Systems, Minneapolis, Minn.), TPO (1 ng/mL, R&D Systems), stem cell factor (SCF, 10 ng/mL, R&D Systems), FLT-3 ligand (FLT3, 50 ng/mL, R&D Systems), granulocyte-macrophage colony stimulating factor (GM-CSF, 50 ng/mL, Biogenesis Ltd, Bournemouth, UK) and combinations of the above, for 24 hr to 28 days (supplemented every 4 days). • 2. […] AChE C-terminal peptides: The following C-terminal peptides of the AChE synaptic (ASP, also denoted SEQ ID: No. 2) and readthrough (ARP, also denoted SEQ ID: No. 1) isoforms were synthesized using a 433A peptide synthesizer (PE Applied Biosystems, Inc., Norwalk, Conn.). • ASP: 1-[…]-40, also denoted as SEQ ID: No. 2. • ARP: 1-[…]-26, also denoted as SEQ ID: No. 1.
[…] Twenty-eight day liquid cultures were sampled every 6–8 days for viable cell counting (using trypan blue dye exclusion), cell phenotyping (CD34^+, CD33^+ and CD41^+ quantification using flow cytometry, with CD34-PE, CD33-FITC (Immunotech/Coulter, Hialeah, Fla.), CD41-FITC (Immunoquality Products, Groningen, Netherlands) and CD45-FITC monoclonal antibodies), and growth of progenitor colony (granulocyte-macrophage and megakaryocytic), using previously described techniques (Pick et al. (1998) id ibid.). […]
(Incorporation of labelled thymidine or its analogues reports DNA synthesis.)

Assay [2] has as its system CD34^+ cells. As to the kind of experiment: Viable cell expansion in CD34+ liquid cultures (trypan blue exclusion). In kind it is cell-based, human. The source says:
Cell Source: UCB was collected, following informed consent of the parents and with the approval of the Sourasky Medical Center Ethics Committee, as previously described [Grisaru et al. (1999a) Am. J. Obstet. Gynecol, 180, 1240–1243]. Following 1:1 (v/v) dilution in Iscove's modified Dulbecco medium (IMDM, Beit Haemek, Israel), mononuclear cells were separated using 3% gelatin (Difco, Detroit, Mich.) and Ficoll-Hypaque gradients (<1.077 g/ml; Pharmacia, Uppsala, Sweden) [Pick et al. (1998) Br. J. Haematol. 103, 639–50]. CD34^+ cells were enriched using CD34 immunoglobulin-coated magnetic beads (CD34 progenitor cell selection system, Dynal, Norway).CD34^+ cells analysis was performed by flow cytometry (Becton Dickinson Immunocytochemistry System Inc., San Jose, Calif.), using CD34-PE (Becton Dickinson Immunocytometry System, Inc.) and CD45-FITC (Dako, Glostrup, Denmark) monoclonal antibodies. […] Liquid Cultures: UCB CD34^+ cells were set for liquid cultures at a concentration of 10^5/mL in IMDM, containing 10% autologous plasma, 2 mM L-glutamine (Sigma Chemical Co., St Louis, Mo.), penicillin ([…]), streptomycin ([…]), amphotericin B (2×10^−5 M) (Sigma Chemical Co.), and heparin (20 IU/mL, Gibco, Grand Island, N.Y.), all in a fully humidified atmosphere at 37° C. and 5% CO2. The following elements were added where noted: • 1. Hematopoietic growth factors: Interleukin 3 (IL3, 5 ng/mL, Immunex, Seattle, Wash.), interleukin 6 (IL6, 50 ng/mL, R&D Systems, Minneapolis, Minn.), TPO (1 ng/mL, R&D Systems), stem cell factor (SCF, 10 ng/mL, R&D Systems), FLT-3 ligand (FLT3, 50 ng/mL, R&D Systems), granulocyte-macrophage colony stimulating factor (GM-CSF, 50 ng/mL, Biogenesis Ltd, Bournemouth, UK) and combinations of the above, for 24 hr to 28 days (supplemented every 4 days). • 2. Endothlial Growth factors: Epidermal growth factor (EGF 10 ng/ml, Sigma Chemical Co.), basic Fibroblast growth factor (bFGF 20 ng/ml, Sigma Chemical Co.) incubated in a serum free medium (SFM) for 48 hr. • 3. […] AChE C-terminal peptides: The following C-terminal peptides of the AChE synaptic (ASP, also denoted SEQ ID: No. 2) and readthrough (ARP, also denoted SEQ ID: No. 1) isoforms were synthesized using a 433A peptide synthesizer (PE Applied Biosystems, Inc., Norwalk, Conn.). • ASP: 1-[…]-40, also denoted as SEQ ID: No. 2. • ARP: 1-[…]-26, also denoted as SEQ ID: No. 1. […]

For the next assay, the system named is developing mouse brain. As to the kind of experiment: BrdU labeling in developing brain after injection of pregnant mouse. In kind it is in vivo. The conditions noted are these: peptide 0.1 mg/Kg into pregnant mouse; BrdU 24 hr later. The source says: After 1 hr the embryo was isolated and fixed.
Embryonic neuroepithelial cells have one of two fates: (1) to continue proliferation and migration up and down from the ventricular zone up to the cortical plate, or (2) to quit the proliferative cycle and initiate terminal differentiation. The balance between these two processes determines the number of proliferating neuronal progenitors as well as the thickness of the cortical plate where post-mitotic neurons accumulate (see scheme at FIG. 10).

For the substance “ASP (DTLDEAERQWKAEFHRWSSYMVHWKNQFDHYSKQDRCSDL)”, the BrdU incorporation values in the assay with CD34^+ cells [1] (16 hrs post-plating) is 0.095 ± 0.004; with CD34^+ cells [1] (24 hrs post-plating) it was 0.182 ± 0.018; in the assay on CD34^+ cells [1] (36 hrs post-plating) it was 0.260 ± 0.022. In addition, the Total viable cells in the assay on CD34^+ cells [2] (day 14, seeded at 50,000 cells/well, ARP 2 nM, cortisol 1.2 μM, ASP 2 nM, SCF 50 ng/ml, AS1 20 pM, PBAN 2 nM) was 100.0 cells per culture × 10^−3. Besides, in the assay with CD34^+ cells [2] (similar doses, alone or with cytokines, 2 weeks), the “promotion of cell expansion compared with ARP” value was “less effective than ARP”. Further, in the assay on developing mouse brain, the “neuronal proliferation (BrdU labeled nuclei) in embryonic brain” value is given as “minor positive effect”.
